Key:
[1] = tested on: intracranial D54MG tumors; assay: Intracranial survival study; format: in vivo, athymic nude mice; conditions: for median survival time: FIG. 5
Protocol: D54MG human glioma cells (0.5×10^6 cells/mouse) were injected into the right frontal cortex of athymic nude mice (10 mice/group). Six days after tumor implantation (Day 0), a single dose of saline or 3.2×10^7 TCID50 AdCD-D314A was injected i.t. Mice then received 5 Gy fractions of radiation treatment on Days 1, 3, and 7 and 5-FC (500 mg/kg i.p. twice daily on Days 0-4, and 7-11) or saline and were subsequently monitored for survival.
D54MG human glioma cells (0.5×10^6 cells/mouse) were injected into the right frontal cortex of athymic nude mice (10 mice/group). Five days after tumor implantation, a single dose of PBS or 3.2×10^7 TCID50 AdbCD-D314A was injected i.t. on Day 5 Mice then received radiation treatment on Days 6, 9 and 13 at 2 or 5 Gy and 5-FC (500 mg/kg i.p. q2d×5/week for 3 weeks) and were subsequently monitored for survival.
D54MG tumors were established intracranially in athymic nude mice as described. Briefly, mice were anesthetized by i.p. administration of ketamine (20 mg/ml) and xylazine (0.3 mg/ml) in saline at 0.07 ml/10 g of body weight. A midline scalp incision was made, and a 0.5-mm burr hole was drilled 1.5-2.0 mm to the right of midline and 1 mm anterior to the coronal suture. D54MG cells were injected stereotactically at 0.5×10^6 cells (1×10^8/ml), using a 250 μl Hamilton syringe with a prepared 30 gauge needle mounted in a Stoelting stereotaxic apparatus. A plastic sleeve surrounding the needle allowed reproducible injections of tumor cells, saline or Ad to a depth of 2.5 mm. The needles were left in place for 2 min to minimize reflux of the tumor cells along the needle track. The scalp wounds were closed with Tissu-Mend glue to avoid scatter dose from metallic wound clips during radiation treatment. The mice were placed on a heating pad in sterile microisolator polycarbonate cages and allowed to awaken from anesthesia. Tumors were allowed to grow for 6 days before the start of treatment (Day 0). Animals were randomly divided into groups receiving different treatments: 3.2×10^7 TCID50 AdbCD-D314A in 10 μl saline; AdbCD-D314A in combination with radiation; AdbCD-D314A plus 5-FC; AdbCD-D314A plus 5-FC in combination with radiation, intratumoral saline followed by intraperitoneal 5-FU and intratumoral saline plus 5-FC and radiation. On the day after AdbCD-D314A injection, mice were treated i.p. with either saline or 5-FC twice daily at 500 mg/kg on Days 0 to 4, and 7 to 11 and monitored daily for survival. Radiation therapy consisted of 15 Gy ^60Co delivered in 5 Gy fractions to the whole brain, on Days 1, 3 and 7. Irradiated mice were immobilized in individual Lucite chambers with their heads positioned in an 8×32 cm collimated field. Animals were shielded with 3 cm of lead placed over the chamber, extending from behind the ears to the tail.

[2] = tested on: Intracranial U87MG Human Gliomas; assay: Survival, intracranial glioma, Ad, 5-FC and external beam radiation; format: in vivo, athymic nude mice
Protocol: This therapeutic effect of AdCMVCD/5-FC on glioma cells could be further enhanced with concurrent fractionated ionizing external beam radiation (Table 9). U87MG cells (5×10^5) were stereotactically injected into the right frontal cortex of athymic nude mice. Tumors were established for 5 days before intratumoral injection of AdCMVCD (10^9 pfu/mouse). Mice were then treated IP with 5-FC (500 mg/kg bid) on days 2-9 post infection, irradiated with local external beam 330 cGy ^60Co radiation on days 4 and 7 post-infection, and monitored for survival. Kaplan-Meier survival curves and median and 20% survival values were calculated by standard methods.

[3] = tested on: Intracranial D54MG Human Gliomas; assay: Survival, intracranial glioma, intratumoral Ad and systemic 5-FC; format: in vivo, SCID mice; conditions: Table 7; Saline (no virus) + 5-FC
Protocol: U87MG and D54MG cells (5×10^5) were stereotactically injected into the right frontal cortex of SCID mice. Tumors were established for 5 days before intratumoral injection of AdCMVCD (10^8 or 10^9 pfu/mouse). Mice were then treated IP with 5-FC (500 mg/kg bid) on days 2-9 post infection and monitored for survival. Kaplan-Meier survival curves and median and 20% survival values were calculated by standard methods.

D54MG xenografts = assay: Subcutaneous human glioma xenograft model, tumor growth; format: in vivo, athymic nude mice
Protocol: Treatment was started at the time of established tumor growth (Day 0 equal to 14 days after tumor cell injection). Animals were infected i.t. with 1×10^8 TCID50 AdbCDwt or AdbCD-D314A on Days 0, 7, and 14, and then irradiated with 2 Gy on Days 4, 7 and 10. 5-FC was injected i.p. at 500 mg/kg on Days 0 to 4, 7 to 11, and 14 to 18. Data points represent the mean change in tumor surface area relative to Day 0 for each group of animals.
Treatment was started at the time of established tumor growth (Day 0 equal to 17 days after tumor cell injection). Animals were infected i.t. with 1×10^8 TCID50 AdbCD-D314A on Days 0, 7, and 14, and irradiated with 5 Gy on Days 4, 7 and 10. 5-FC was injected i.p. at 500 mg/kg on Days 0 to 4, 7 to 11, and 14 to 18. Data points represent the mean change in tumor surface area relative to Day 0 for each group of animals.
To assess anti-tumor effects on established solid tumors, D54MG glioma cells (2×10^7) were injected s.c. into female athymic nude mice. Treatment was started 14 days post-tumor cell injection at the time of established tumor growth (tumors were 6-8 mm in diameter), noted as Day 0. […] Tumor size was monitored twice a week with Vernier calipers. Tumor surface area (length×width in mm^2) was calculated for each group of 10 mice and plotted as a percentage change over time relative to the mean size on Day 0 for each group.

[4] = Saline (no virus) + 5-FC, no XRT

In the case of `Nc1nc(=O)[nH]cc1F` [5-FC, 5-fluorocytosine], the median survival time ([1]; 5-FC) is reported as 17 days, the median survival time ([1]; 5-FC plus radiation) is reported as 30 days and the “survival SF50” value ([1]; FIG. 19, mock-infected, 5-FC) is reported as 23 days. For the same compound, the survival ([1]; preliminary study, mock-infected, 5-FC) was 13 days, the “Survival 20%” value ([2]; Saline (no virus) + 5-FC + XRT) was 32 and the “Survival Median” value ([2]; Saline (no virus) + 5-FC + XRT) was 31. For the same compound, the “Survival 20%” value [2, 4] was 55, the “Survival Median” value [2, 4] was 28 and the “Survival 20%” value [3] was 30. The “Survival Median” value [3] was 29, the “mean time to tumor doubling” value (D54MG xenografts; 5-FC alone) was 13 days and the “mean time to tumor doubling” value (D54MG xenografts; 5-FC plus radiation (3×2 Gy)) was 15 days.
